{"source": "paper PMC10574094", "about": "“Discovery of a SHP2 Degrader with In Vivo Anti-Tumor Activity” (Molecules, 2023)", "key": {"[1]": {"assay": "Tolerability and body weight in xenograft study", "format": "in vivo", "details": "mice, 25 mg/kg or 50 mg/kg daily IP", "protocol": "Experiments on mice were carried out in accordance with the regulations of the Institutional Animal Care and Use Committees at Purdue University. All mice were housed under pathogen-free conditions in the animal facility and received autoclaved water and food. Eight to ten weeks-old Nude mice were used in the study.\nFor the xenograft tumor study, KYSE-520 cells were suspended in PBS and a total of 3 × 10^6 cells (100 μL) were subcutaneously implanted into both the left and right flank using a 27-gauge needle. Tumor volume was calculated using the formula V = (W^2 × L)/2 for caliper measurements. Once the tumor volume reaches 200 mm^3, daily intraperitoneal injection of either control, 25 mg/kg or 50 mg/kg of compound P9 was performed. Mice were sacrificed after injection for 18 days, and tumors were collected for biochemical analysis."}, "LMW-PTP": {"biological_target": "LMW-PTP (Homo sapiens, UniProt P24666)", "sequence (P24666 whole entry, species assumed)": "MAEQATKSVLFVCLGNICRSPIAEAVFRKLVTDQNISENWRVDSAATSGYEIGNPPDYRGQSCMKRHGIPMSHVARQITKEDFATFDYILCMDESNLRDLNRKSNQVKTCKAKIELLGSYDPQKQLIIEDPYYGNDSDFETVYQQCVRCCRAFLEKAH", "assay": "PTP inhibition assay (pNPP)", "format": "biochemical", "protocol": "(§1) PTP activity was assayed using p-nitrophenyl phosphate (pNPP) as a substrate in DMG buffer (50 mM DMG, pH 7.0, 1 mM EDTA, 150 mM NaCl, 2 mM DTT, 0.1 mg/mL BSA) at 25 °C. The assays were performed in 96-well plates. To determine the IC50 values, the reaction was initiated by the addition of enzyme (final concentration = 10 nM) to a reaction mixture (0.2 mL) containing pNPP (at a final concentration close to the Kms of tested enzymes, in specific: 0.05 mM for CDC-14A; 0.5 mM for FAP-1; 2 mM for TC-PTP, PTP1B, STEP, LWM-PTP, and PTPα; 3 mM for SHP1; 4 mM for Laforin; 5 mM for LYP, CD45, and VHR; 6 mM for PTP-MEG2 and HePTP) with various concentrations of inhibitors. The reaction rate was measured using a SpectraMax Plus 384 Microplate Spectrophotometer (Molecular Devices, San Jose, CA, USA). Data were fitted using the SigmaPlot Enzyme Kinetics Module (Systat Software, Inc., San Jose, CA, USA)."}, "PTP-α": {"biological_target": "PTP-α (Homo sapiens, UniProt P18433)", "sequence (P18433 20-802)": "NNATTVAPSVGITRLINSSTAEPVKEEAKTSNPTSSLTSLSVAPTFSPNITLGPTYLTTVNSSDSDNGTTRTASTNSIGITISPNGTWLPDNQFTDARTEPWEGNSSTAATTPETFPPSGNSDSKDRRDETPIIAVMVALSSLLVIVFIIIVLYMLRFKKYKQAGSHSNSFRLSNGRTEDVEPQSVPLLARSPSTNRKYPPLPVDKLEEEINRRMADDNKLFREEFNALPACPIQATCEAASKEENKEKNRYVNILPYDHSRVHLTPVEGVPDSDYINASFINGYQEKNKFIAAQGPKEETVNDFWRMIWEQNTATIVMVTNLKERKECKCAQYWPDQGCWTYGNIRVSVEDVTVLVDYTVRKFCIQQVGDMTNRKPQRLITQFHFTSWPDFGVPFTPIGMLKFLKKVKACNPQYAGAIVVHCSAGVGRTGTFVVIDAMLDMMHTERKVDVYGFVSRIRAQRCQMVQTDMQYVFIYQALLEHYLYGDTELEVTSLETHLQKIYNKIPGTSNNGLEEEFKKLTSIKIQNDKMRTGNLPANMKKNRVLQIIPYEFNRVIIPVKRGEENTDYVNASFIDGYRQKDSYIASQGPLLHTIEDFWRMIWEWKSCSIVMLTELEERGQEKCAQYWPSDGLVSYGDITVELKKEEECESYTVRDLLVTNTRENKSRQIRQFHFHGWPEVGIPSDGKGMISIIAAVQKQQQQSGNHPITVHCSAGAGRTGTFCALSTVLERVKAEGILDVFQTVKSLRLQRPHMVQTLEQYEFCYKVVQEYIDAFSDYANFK", "assay": "PTP inhibition assay (pNPP)", "format": "biochemical", "protocol": "as §1"}, "CDC-14A": {"biological_target": "CDC-14A (Homo sapiens, UniProt Q9UNH5)", "assay": "PTP inhibition assay (pNPP)", "format": "biochemical", "protocol": "as §1"}, "STEP": {"biological_target": "STEP (Homo sapiens, UniProt P54829)", "assay": "PTP inhibition assay (pNPP)", "format": "biochemical", "protocol": "as §1"}, "TC-PTP": {"biological_target": "TC-PTP (Homo sapiens, UniProt P17706)", "sequence (P17706 whole entry, species assumed)": "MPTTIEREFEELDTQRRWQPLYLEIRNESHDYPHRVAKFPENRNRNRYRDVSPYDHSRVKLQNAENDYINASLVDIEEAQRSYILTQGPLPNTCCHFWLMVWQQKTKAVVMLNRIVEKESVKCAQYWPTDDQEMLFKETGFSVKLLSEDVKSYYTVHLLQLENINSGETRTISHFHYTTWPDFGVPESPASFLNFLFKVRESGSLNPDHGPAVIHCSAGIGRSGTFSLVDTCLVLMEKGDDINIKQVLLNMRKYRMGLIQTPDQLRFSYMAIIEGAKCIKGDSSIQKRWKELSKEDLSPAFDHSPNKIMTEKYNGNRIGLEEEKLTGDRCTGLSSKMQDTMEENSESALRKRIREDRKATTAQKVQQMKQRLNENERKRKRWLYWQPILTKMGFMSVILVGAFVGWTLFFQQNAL", "assay": "PTP inhibition assay (pNPP)", "format": "biochemical", "protocol": "as §1"}, "VHR": {"biological_target": "VHR (Homo sapiens, UniProt P51452)", "sequence (P51452 whole entry, species assumed)": "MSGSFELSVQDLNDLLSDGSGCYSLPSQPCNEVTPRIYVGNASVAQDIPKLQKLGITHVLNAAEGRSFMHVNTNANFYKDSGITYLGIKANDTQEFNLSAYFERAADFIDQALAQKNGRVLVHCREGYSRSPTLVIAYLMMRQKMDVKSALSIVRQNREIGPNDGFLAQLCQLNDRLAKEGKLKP", "assay": "PTP inhibition assay (pNPP)", "format": "biochemical", "protocol": "as §1"}, "PTP1B": {"biological_target": "PTP1B (Homo sapiens, UniProt P18031)", "assay": "PTP inhibition assay (pNPP)", "format": "biochemical", "protocol": "as §1"}, "LYP": {"biological_target": "LYP (Homo sapiens, UniProt Q9Y2R2)", "assay": "PTP inhibition assay (pNPP)", "format": "biochemical", "protocol": "as §1"}, "FAP-1": {"biological_target": "FAP-1 (Homo sapiens, UniProt Q12923)", "sequence (Q12923 whole entry, species assumed)": "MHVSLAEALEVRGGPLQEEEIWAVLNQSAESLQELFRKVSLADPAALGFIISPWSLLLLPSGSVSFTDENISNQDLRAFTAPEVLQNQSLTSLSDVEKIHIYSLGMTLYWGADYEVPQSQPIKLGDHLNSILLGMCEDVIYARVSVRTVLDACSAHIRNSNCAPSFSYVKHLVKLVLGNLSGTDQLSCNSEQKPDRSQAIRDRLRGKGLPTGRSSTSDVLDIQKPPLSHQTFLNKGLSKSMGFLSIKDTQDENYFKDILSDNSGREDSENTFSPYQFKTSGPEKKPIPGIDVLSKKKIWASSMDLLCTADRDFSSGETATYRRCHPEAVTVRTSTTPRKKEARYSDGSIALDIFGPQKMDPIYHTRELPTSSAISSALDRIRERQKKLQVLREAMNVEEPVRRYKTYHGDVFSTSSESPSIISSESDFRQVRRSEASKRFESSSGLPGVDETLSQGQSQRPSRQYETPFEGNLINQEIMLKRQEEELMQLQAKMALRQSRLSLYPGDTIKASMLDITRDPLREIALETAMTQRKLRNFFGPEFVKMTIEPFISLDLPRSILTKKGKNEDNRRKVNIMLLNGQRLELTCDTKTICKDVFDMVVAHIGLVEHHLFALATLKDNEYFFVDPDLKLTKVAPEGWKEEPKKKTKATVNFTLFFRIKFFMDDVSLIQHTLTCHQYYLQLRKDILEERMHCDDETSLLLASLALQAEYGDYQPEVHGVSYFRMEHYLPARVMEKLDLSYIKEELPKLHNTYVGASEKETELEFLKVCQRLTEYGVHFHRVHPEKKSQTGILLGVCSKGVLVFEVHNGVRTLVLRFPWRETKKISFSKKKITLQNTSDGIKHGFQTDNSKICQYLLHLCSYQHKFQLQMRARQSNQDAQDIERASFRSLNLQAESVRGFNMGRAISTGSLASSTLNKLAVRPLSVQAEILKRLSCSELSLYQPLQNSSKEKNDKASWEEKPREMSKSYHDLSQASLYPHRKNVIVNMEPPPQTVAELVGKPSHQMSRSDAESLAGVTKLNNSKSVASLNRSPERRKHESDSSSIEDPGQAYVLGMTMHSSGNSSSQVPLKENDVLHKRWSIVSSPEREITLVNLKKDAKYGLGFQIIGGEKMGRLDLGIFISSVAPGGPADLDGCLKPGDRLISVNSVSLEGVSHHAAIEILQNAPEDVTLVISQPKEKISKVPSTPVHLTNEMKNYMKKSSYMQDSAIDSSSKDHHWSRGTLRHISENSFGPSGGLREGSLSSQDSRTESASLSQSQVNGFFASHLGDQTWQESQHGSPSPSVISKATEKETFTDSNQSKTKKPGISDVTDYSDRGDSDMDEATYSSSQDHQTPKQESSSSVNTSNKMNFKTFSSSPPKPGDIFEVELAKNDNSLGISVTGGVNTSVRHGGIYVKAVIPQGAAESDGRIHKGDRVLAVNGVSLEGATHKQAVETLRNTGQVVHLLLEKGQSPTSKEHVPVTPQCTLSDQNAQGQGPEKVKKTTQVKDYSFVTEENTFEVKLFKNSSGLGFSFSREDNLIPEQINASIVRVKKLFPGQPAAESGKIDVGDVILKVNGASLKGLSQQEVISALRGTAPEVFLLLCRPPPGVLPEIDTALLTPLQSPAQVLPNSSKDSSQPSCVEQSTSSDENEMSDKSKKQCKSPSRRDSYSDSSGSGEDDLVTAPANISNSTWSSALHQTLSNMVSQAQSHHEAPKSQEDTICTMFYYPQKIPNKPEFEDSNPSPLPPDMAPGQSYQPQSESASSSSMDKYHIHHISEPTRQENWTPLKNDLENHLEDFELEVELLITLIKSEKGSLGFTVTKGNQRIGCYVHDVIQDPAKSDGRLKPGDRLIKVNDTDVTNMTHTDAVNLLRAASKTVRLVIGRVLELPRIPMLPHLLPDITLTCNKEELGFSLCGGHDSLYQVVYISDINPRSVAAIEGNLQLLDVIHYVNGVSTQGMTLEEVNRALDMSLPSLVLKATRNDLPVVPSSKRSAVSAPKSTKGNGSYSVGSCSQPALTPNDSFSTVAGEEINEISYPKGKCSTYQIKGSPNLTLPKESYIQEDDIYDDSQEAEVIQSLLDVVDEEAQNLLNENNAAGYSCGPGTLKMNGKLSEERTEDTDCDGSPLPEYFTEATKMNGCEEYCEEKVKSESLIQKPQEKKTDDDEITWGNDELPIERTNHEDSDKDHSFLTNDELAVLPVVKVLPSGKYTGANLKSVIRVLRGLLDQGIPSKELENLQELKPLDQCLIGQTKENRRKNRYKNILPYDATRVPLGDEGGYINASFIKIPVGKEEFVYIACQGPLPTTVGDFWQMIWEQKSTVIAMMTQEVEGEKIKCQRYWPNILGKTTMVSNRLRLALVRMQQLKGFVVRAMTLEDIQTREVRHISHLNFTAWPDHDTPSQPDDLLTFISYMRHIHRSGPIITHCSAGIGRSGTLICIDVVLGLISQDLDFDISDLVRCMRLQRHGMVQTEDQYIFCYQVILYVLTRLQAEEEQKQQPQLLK", "assay": "PTP inhibition assay (pNPP)", "format": "biochemical", "protocol": "as §1"}, "PTP-MEG2": {"biological_target": "PTP-MEG2 (Homo sapiens, UniProt P43378)", "assay": "PTP inhibition assay (pNPP)", "format": "biochemical", "protocol": "as §1"}, "Laforin": {"biological_target": "Laforin (Homo sapiens, UniProt O95278)", "sequence (O95278 whole entry, species assumed)": "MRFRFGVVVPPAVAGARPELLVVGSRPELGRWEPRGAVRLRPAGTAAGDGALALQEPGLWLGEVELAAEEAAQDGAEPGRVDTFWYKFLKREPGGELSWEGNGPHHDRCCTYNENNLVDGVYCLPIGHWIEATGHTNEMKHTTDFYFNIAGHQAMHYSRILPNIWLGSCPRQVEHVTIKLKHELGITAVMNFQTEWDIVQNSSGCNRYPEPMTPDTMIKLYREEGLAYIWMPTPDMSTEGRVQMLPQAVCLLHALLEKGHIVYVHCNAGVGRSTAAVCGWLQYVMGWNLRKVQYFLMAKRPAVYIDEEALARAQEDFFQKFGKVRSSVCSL", "assay": "PTP inhibition assay (pNPP)", "format": "biochemical", "protocol": "as §1"}, "HePTP": {"biological_target": "HePTP (Homo sapiens, UniProt P35236)", "assay": "PTP inhibition assay (pNPP)", "format": "biochemical", "protocol": "as §1"}, "SHP1": {"biological_target": "SHP1 (Homo sapiens, UniProt P29350)", "sequence (P29350 whole entry)": "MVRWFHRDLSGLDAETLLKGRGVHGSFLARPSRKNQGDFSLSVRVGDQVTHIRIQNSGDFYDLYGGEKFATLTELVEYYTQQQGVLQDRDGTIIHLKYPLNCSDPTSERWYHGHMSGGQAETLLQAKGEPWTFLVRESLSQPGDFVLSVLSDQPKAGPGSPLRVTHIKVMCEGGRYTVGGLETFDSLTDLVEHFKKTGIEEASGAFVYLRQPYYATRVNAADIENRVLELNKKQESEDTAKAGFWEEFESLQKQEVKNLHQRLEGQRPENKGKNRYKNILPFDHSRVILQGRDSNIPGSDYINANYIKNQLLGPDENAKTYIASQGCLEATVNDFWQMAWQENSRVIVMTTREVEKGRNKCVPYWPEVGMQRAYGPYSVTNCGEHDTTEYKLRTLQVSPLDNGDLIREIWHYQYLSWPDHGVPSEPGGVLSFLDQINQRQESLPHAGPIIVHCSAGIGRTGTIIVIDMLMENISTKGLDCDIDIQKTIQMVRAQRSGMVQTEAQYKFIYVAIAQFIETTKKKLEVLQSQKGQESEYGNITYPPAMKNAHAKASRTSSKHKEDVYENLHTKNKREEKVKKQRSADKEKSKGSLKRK", "assay": "PTP inhibition assay (pNPP)", "format": "biochemical", "protocol": "as §1"}, "CD45": {"biological_target": "CD45 (Homo sapiens, UniProt P08575)", "assay": "PTP inhibition assay (pNPP)", "format": "biochemical", "protocol": "as §1"}, "pERK1/2": {"test_system": "pERK1/2", "assay": "pERK1/2 level in KYSE-520 tumor homogenates (Western blot)", "format": "in vivo, mice", "details": "whole tumor homogenates, 50 mg/kg P9 IP", "protocol": "HEK293, SKBR3, U2OS, MCF7 and A549 cells were grown in DMEM supplemented with 10% FBS, penicillin (50 units/mL), and streptomycin (50 μg/mL) in a 37 °C incubator containing 5% CO2. KYSE-520 and H358 cells were grown in RPMI-1640 supplemented with 10% FBS, penicillin (50 units/mL), and streptomycin (50 μg/mL) in a 37 °C incubator containing 5% CO2. For western-blot analysis, protein samples were separated by SDS-PAGE, transferred to nitrocellulose membranes, and incubated overnight at 4 °C with corresponding primary antibodies diluted in 5% BSA in phosphate-buffered saline Tween (PBST). SuperSignal™ West Pico PLUS (PI34580; Thermo Scientific) was used to visualize the antibodies in the bioanalytical imaging system (Azure Biosystems c500). Anti-p-ERK1/2 (T202/Y204) (4370), and anti-ERK1/2 (4696) were purchased from Cell Signaling Technology. Anti-GAPDH (sc-365062), anti-SHP2 (sc-7384), anti-SHP1 (sc-7289), and anti-Actin (sc-8432) antibodies were purchased from Santa Cruz. Anti-PTP1B (ab244207) antibody was purchased from Abcam. […]\nFor the xenograft tumor study, KYSE-520 cells were suspended in PBS and a total of 3 × 10^6 cells (100 μL) were subcutaneously implanted into both the left and right flank using a 27-gauge needle. Tumor volume was calculated using the formula V = (W^2 × L)/2 for caliper measurements. […]"}, "ERK1/2, AKT, β-Actin": {"test_system": "ERK1/2, AKT, β-Actin", "assay": "Western blot of other signaling proteins in HEK293 cells", "format": "cell-based, human", "details": "1 μM P9, 16 h", "protocol": "HEK293, SKBR3, U2OS, MCF7 and A549 cells were grown in DMEM supplemented with 10% FBS, penicillin (50 units/mL), and streptomycin (50 μg/mL) in a 37 °C incubator containing 5% CO2. KYSE-520 and H358 cells were grown in RPMI-1640 supplemented with 10% FBS, penicillin (50 units/mL), and streptomycin (50 μg/mL) in a 37 °C incubator containing 5% CO2. For western-blot analysis, protein samples were separated by SDS-PAGE, transferred to nitrocellulose membranes, and incubated overnight at 4 °C with corresponding primary antibodies diluted in 5% BSA in phosphate-buffered saline Tween (PBST). SuperSignal™ West Pico PLUS (PI34580; Thermo Scientific) was used to visualize the antibodies in the bioanalytical imaging system (Azure Biosystems c500). Anti-p-ERK1/2 (T202/Y204) (4370), and anti-ERK1/2 (4696) were purchased from Cell Signaling Technology. Anti-GAPDH (sc-365062), anti-SHP2 (sc-7384), anti-SHP1 (sc-7289), and anti-Actin (sc-8432) antibodies were purchased from Santa Cruz. Anti-PTP1B (ab244207) antibody was purchased from Abcam. For colony formation assay, a total of approximately 200–500 cells were seeded to each well in a 12-well plate. The wells were then treated with DMSO, compound P9 and 3 at 37 °C for 3 weeks, gently washed, and stained with crystal violet."}}, "note": "Entries after “also recorded” stand apart in the source; their conditions may differ."}
{"compound": "Cc1ncsc1-c1ccc([C@H](C)NC(=O)[C@@H]2C[C@@H](O)CN2C(=O)[C@@H](NC(=O)CCCCCCCCCN2CCN(C(=O)CCCCCC3(CN)CCN(c4cnc(Sc5cccc(Cl)c5Cl)c(N)n4)CC3)CC2)C(C)(C)C)cc1", "note": "[P9, (2S,4R)-1-((S)-2-(10-(4-(6-(1-(6-amino-5-((2,3-dichlorophenyl)thio)pyrazin-2-yl)-4-(aminomethyl)piperidin-4-yl)hexanoyl)piperazin-1-yl)decanamido)-3,3-dimethylbutanoyl)-4-hydroxy-N-((S)-1-(4-(4-methylthiazol-5-yl)phenyl)ethyl)pyrrolidine-2-carboxamide]", "values": [{"measurement": "tolerability", "setting": "[1]", "result": "well tolerated"}, {"measurement": "animal body weight", "setting": "[1]; during treatment", "result": "preserved; also recorded: no significant effect on mice body weight"}, {"measurement": "Fold selectivity LMW-PTP", "setting": "LMW-PTP; over SHP2", "result": "> 105"}, {"measurement": "IC50", "setting": "LMW-PTP; pNPP 2 mM", "result": "> 10", "unit": "µM"}, {"measurement": "Fold selectivity PTP-α", "setting": "PTP-α; over SHP2", "result": "> 105"}, {"measurement": "IC50", "setting": "PTP-α; pNPP 2 mM", "result": "> 10", "unit": "µM"}, {"measurement": "Fold selectivity CDC-14A", "setting": "CDC-14A; over SHP2", "result": "> 105"}, {"measurement": "IC50", "setting": "CDC-14A; pNPP 0.05 mM", "result": "> 10", "unit": "µM"}, {"measurement": "Fold selectivity STEP", "setting": "STEP; over SHP2", "result": "> 105"}, {"measurement": "IC50", "setting": "STEP; pNPP 2 mM", "result": "> 10", "unit": "µM"}, {"measurement": "Fold selectivity TC-PTP", "setting": "TC-PTP; over SHP2", "result": "> 105"}, {"measurement": "IC50", "setting": "TC-PTP; pNPP 2 mM", "result": "> 10", "unit": "µM"}, {"measurement": "Fold selectivity VHR", "setting": "VHR; over SHP2", "result": "> 105"}, {"measurement": "IC50", "setting": "VHR; pNPP 5 mM", "result": "> 10", "unit": "µM"}, {"measurement": "Fold selectivity PTP1B", "setting": "PTP1B; over SHP2", "result": "> 105"}, {"measurement": "IC50", "setting": "PTP1B; pNPP 2 mM", "result": "> 10", "unit": "µM"}, {"measurement": "Fold selectivity LYP", "setting": "LYP; over SHP2", "result": "> 105"}, {"measurement": "IC50", "setting": "LYP; pNPP 5 mM", "result": "> 10", "unit": "µM"}, {"measurement": "Fold selectivity FAP-1", "setting": "FAP-1; over SHP2", "result": "> 105"}, {"measurement": "IC50", "setting": "FAP-1; pNPP 0.5 mM", "result": "> 10", "unit": "µM"}, {"measurement": "Fold selectivity PTP-MEG2", "setting": "PTP-MEG2; over SHP2", "result": "> 105"}, {"measurement": "IC50", "setting": "PTP-MEG2; pNPP 6 mM", "result": "> 10", "unit": "µM"}, {"measurement": "Fold selectivity Laforin", "setting": "Laforin; over SHP2", "result": "> 105"}, {"measurement": "IC50", "setting": "Laforin; pNPP 4 mM", "result": "> 10", "unit": "µM"}, {"measurement": "Fold selectivity HePTP", "setting": "HePTP; over SHP2", "result": "> 105"}, {"measurement": "IC50", "setting": "HePTP; pNPP 6 mM", "result": "> 10", "unit": "µM"}, {"measurement": "Fold selectivity SHP1", "setting": "SHP1; over SHP2", "result": "> 105"}, {"measurement": "IC50", "setting": "SHP1; pNPP 3 mM", "result": "> 10", "unit": "µM"}, {"measurement": "Fold selectivity CD45", "setting": "CD45; over SHP2", "result": "> 105"}, {"measurement": "IC50", "setting": "CD45; pNPP 5 mM", "result": "> 10", "unit": "µM"}, {"measurement": "pERK1/2 level, % of the control group", "setting": "pERK1/2", "result": "24 ± 12", "unit": "%"}, {"measurement": "degradation of other signaling proteins", "setting": "ERK1/2, AKT, β-Actin", "result": "did not induce any appreciable degradation"}]}
